US11712443B2, “17α-monoesters and 17α,21-diesters of cortexolone for use in the treatment of tumors” (COSMO TECHNOLOGIES LTD., priority 2014, dated 2023)

Legend:
Caspases 8, 9 and 3/7 = test: Caspase activity assay in LNCaP prostate cancer cells; type: cell-based; settings: 24 hours, FIG. 12
Protocol: After 24 hours test compounds were added to cells, Gemcitabine (a known pancreatic cancer chemotherapeutic agent) and DMSO were used as positive and negative control, respectively. After 8, 24, & 48 hours incubation with test compounds, cells were lysed in buffer containing the caspase 3/7 or 8 or 9 substrate and a stable luciferase in proprietary buffers. The lysates were transferred to white opaque plates before measuring luminescence in a Tecan S afire instrument. Parallel plates treated identically, were used to determine viable cells. All caspase activities were corrected for the number of viable cells.
Same assay was repeated using LNCaP prostate cancer cell lines (FIG. 12). […] The results are shown in FIG. 12 at 24 hours incubation when the caspase activities peaked.

stimulated PBMC = test: IC50 on stimulated PBMC (actively dividing cells)
Protocol: The IC^50 in PBMC were tested in 2 different activation status:
stimulated—actively dividing cells
IC50 of the compounds was determined on fresh cells isolated from human blood (PBMC). The compounds toxicity was determined as follow: Therapeutic Index=Safety/Potency=IC50 stimulated PBMC_/IC50 cancer cell

MiaPaca2 = settings: human, 3 days
HT29 = test: In vitro proliferation, larger cancer cell line panel; settings: HT29
Glucocorticoid Receptor = molecular target: T1, Glucocorticoid Receptor (Homo sapiens, UniProt P04150); test: GR transcriptional reporter assay, agonist mode; type: cell-based
T1 construct: endogenous in cells; host or cells: human kidney epithelial cells
T1 sequence (P04150 1-777): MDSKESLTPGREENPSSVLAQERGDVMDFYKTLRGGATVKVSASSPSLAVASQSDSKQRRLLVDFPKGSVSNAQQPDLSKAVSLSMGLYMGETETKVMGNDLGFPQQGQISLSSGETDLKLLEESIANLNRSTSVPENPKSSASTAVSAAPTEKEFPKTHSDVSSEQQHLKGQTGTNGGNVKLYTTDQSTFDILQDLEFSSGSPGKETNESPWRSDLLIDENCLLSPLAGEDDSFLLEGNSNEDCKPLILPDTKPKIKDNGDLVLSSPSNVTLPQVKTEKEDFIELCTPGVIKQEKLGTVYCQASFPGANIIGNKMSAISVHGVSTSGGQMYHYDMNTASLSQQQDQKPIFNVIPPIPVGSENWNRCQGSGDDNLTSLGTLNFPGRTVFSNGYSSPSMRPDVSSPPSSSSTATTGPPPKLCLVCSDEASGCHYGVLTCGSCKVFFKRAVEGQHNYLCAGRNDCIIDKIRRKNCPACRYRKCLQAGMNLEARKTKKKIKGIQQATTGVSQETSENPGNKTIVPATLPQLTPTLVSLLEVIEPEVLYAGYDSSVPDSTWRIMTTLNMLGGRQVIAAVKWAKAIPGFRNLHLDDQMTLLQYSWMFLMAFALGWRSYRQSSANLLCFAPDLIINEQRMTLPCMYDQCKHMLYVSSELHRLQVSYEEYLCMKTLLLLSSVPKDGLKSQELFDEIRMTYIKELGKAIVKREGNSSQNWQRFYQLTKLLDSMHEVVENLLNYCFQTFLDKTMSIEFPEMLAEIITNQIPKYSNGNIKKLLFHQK
Protocol: The androgen and glucocorticoid hormones elicit divergent and often opposing effects in cells, tissues, and animals. […] CB-03-10 GR antagonist and agonist activities were tested in an in vitro assay. Briefly, human kidney epithelial cells were transfected with DNA construct containing GR binding sites linked to luminescent based reporter molecule. After 24 hours, cells were treated under antagonist or agonist modes. After an additional 24 hours, luminescence which is proportional to GR agonist transcriptional activity was quantitated.
Agonist Assay—was based on induction of luminescence by CB-03-10
The agonist activity of CB-03-10 was compared to a RU486 which is known to not have agonist activity.

LNCaP = test: ATP-dependent proliferation/viability assay (Cell Titer Glo), 3 days; settings: 3 days
Protocol: (§1) The experiment was performed to test and to define the antitumor activity in vitro of cortexolone 17α-benzoate on LNCaP (AR+) and PC3 (AR^−), representative of Prostatic cancer cell lines with Androgen Receptor (AR) positive or negative expression, respectively. The experimental method consisted of: • 1. […] After 24 hours, 10 nM DHT (dihydrotestosterone) with or without anti-androgen compounds, or DMSO vehicle (negative control) was added to the cultures. • 3.
as §1, with “define” for “define the”, “17α-valerate-21-propionate (CB-03-10)” for “17α-benzoate”, “AR” for “Androgen Receptor (AR)”

PC3 = test: as above; settings: 3 days
Protocol: as §1
as §1, with “define” for “define the”, “17α-valerate-21-propionate (CB-03-10)” for “17α-benzoate”, “AR” for “Androgen Receptor (AR)”

Caspase 3/7 = test: Caspase activity assay in MiaPaca2 cells; type: cell-based; settings: 8, 24, 48 hours, FIG. 11
Protocol: To better analyze the phenomenon the enzymatic activity of Caspase 8 (initiator caspase for Extrinsic Pathway) and Caspase 9 (initiator caspase for Intrinsic Pathway) and of Caspases 3 and 7 (effector caspases) were measured.

[1] = tested on: LNCaP prostate cancer xenograft; test: Human prostate cancer xenograft in nude mice, oral treatment; type: in vivo
Protocol: 3×10^6 LNCaP cells suspended in matrigel were subcutaneously injected (on the right flank) into 6 week old male athymic nude mice. Tumors were measured as described above. Treatment with CB-03-10 and controls compounds was initiated after the tumor had reached 50 mm3. […] Oral dosing was daily (100 mg/Kg in 200 μL/mouse) for 28 consecutive days. Results were plotted as average change in tumor volume relative to the start of treatment.

CCCCC(=O)O[C@]1(C(=O)COC(=O)CC)CC[C@H]2[C@@H]3CCC4=CC(=O)CC[C@]4(C)[C@H]3CC[C@@]21C [CB-03-10, cortexolone 17α-valerate-21-propionate]
Initiator (8 and 9) and Effector (3/7) caspase activities (Caspases 8, 9 and 3/7): induced Initiator (8 and 9) and Effector (3/7) caspase activities better than Enzalutamide
Therapeutic Index = IC50 resting PBMC/IC50 cancer cell (stimulated PBMC; PBMC Stim, healthy lymphocyte, Table IV): 1
Therapeutic Index = IC50 stimulated PBMC/IC50 cancer cell, AVERAGE (stimulated PBMC; average across the 7 cancer cell lines, Table VII): 4
TI on Resting PBMC (MiaPaca2): 3
TI on Stimulated PBMC (MiaPaca2): 3
Therapeutic Index = IC50 resting PBMC/IC50 cancer cell (MiaPaca2): 3
Therapeutic Index = IC50 stimulated PBMC/IC50 cancer cell (MiaPaca2): 3
Therapeutic Index = IC50 resting PBMC/IC50 cancer cell (HT29; Table IV): 3
Therapeutic Index = IC50 stimulated PBMC/IC50 cancer cell (HT29; Table VII): 3
GR agonist activity relative to that of 50 nM Dex (Glucocorticoid Receptor; at very high concentrations): 20%
GR agonist activity (Glucocorticoid Receptor; induction of luminescence, FIG. 8): essentially ineffective as GR agonist
IC50 (LNCaP; Homo sapiens, LNCaP, 72 h, LNCaP (AR+), 10 nM DHT, Examples 1-2 Experiment 1, sigmoidal dose response fit): 13 µM
Therapeutic Index = IC50 resting PBMC/IC50 cancer cell (LNCaP; human): 9
Therapeutic Index = IC50 stimulated PBMC/IC50 cancer cell (LNCaP; human): 9
IC50 (PC3; Homo sapiens, 72 h, PC3 (AR-), 10 nM DHT, Examples 1-2 Experiment 2, nonlinear regression least squares fit, additional experiments): 50 µM
Therapeutic Index = IC50 resting PBMC/IC50 cancer cell (PC3; human): 2
Therapeutic Index = IC50 stimulated PBMC/IC50 cancer cell (PC3; human): 2
Caspase 3/7 induction / caspase activation profile (Caspase 3/7): already at 8 hours at and a really high level after 48 hours incubation
average tumor volume, times smaller than in the vehicle group ([1]; 6 weeks after treatment was stopped): 3.6 times
prostate tumor size increase after treatment was stopped ([1]; oral 100 mg/Kg daily 28 days, after stop): 5 fold
tumor volume increase relative to start of treatment ([1]; oral 100 mg/Kg daily, treatment period of 28 days, negative control 10-fold): 2 fold
statistical significance of tumor growth versus vehicle ([1]; oral gavage, FIG. 16): statistically significantly different from day 7 up to day 60
